# Assays:
# supercoiled pUC19 DNA = assay: DNA condensation of supercoiled pUC19 by gel electrophoresis; type: biochemical; settings: for DNA condensation activity: supercoiled pUC19, at 100 μM; for DNA condensation / aggregation effect: supercoiled pUC19, tested at 100 and 500 μM, 37° C., 90 min
# Method: Preparation of solutions. Tri-Click samples were initially prepared in DMF and further diluted in HEPES buffer (80 mM). Metal complexes of the Tri-Click series were prepared in-situ by co-incubating with copper(II) nitrate trihydrate, manganese (II) chloride tetrahydrate or zinc(II) acetate dihydrate for 30 min at 37° C. prior to DNA addition.
# DNA nuclease and condensation studies. Reactions were carried out in 80 mM HEPES (pH 7.4) unless otherwise stated and followed the general procedure: a total volume of 20 μL with 25 mM NaCl, 400 ng pUC19 at varying concentrations of test compounds (0.25-500 μM) were incubated at 37° C. for either 90 min, 6 h, 12 h or 24 h. Reactions were quenched by adding 6× loading buffer (Fermentas) containing 10 mM Tris-HCl, 0.03% bromophenol blue, 0.03% xylene cyanole FF, 60% glycerol, 60 mM EDTA and samples were loaded onto an agarose gel (1.2%) containing 4 μL EtBr. Electrophoresis was completed at 70 V for 1 h in 1×TAE buffer. DNA studies conducted in the presence of reductant were supplemented with 1 mM Na-L-ascorbate and incubated at 37° C. for 30 min. Electrophoresis was carried out at 70 V for 90 minutes in 1×TAE buffer and photographed using a UV transilluminator.
# The DNA recognition properties of the TC series, along with the control compounds, were probed using electrophoresis experiments with supercoiled pUC19 DNA. TC1 was examined across a wide concentration range and found to condense DNA at high concentrations between 250 and 500 μM (FIG. 2a, lanes 11-13).
# poly[d(A-T)2] = assay: Competitive ethidium bromide displacement assay, poly[d(A-T)2]; type: binding; settings: A-T duplex polymer, EtBr displacement
# Method: (§1) Competitive ethidium bromide displacement assay. The DNA binding affinity of the tripodal series was determined over a 2 h time period using calf-thymus DNA and synthetic alternating co-polymers poly[d(A-T)2)] and poly[d(G-C)2] by ethidium bromide fluorescence quenching in a similar manner to the high throughput method previously reported by Kellett et al. (McCann, M., McGinley, J., Ni, K., O'Connor, M., Kavanagh, K., McKee, V., Colleran, J., Devereux, M., Gathergood, N., Barron, N. et al. (2013) A new phenanthroline-oxazine ligand: synthesis, coordination chemistry and atypical DNA binding interaction. Chem. Commun., 49, 2341-2343). Each drug concentration was measured in triplicate, on at least two separate occasions, and the apparent binding constants were calculated using Kapp=Ke×12.6/C50 where Ke=9.5×10^6 M^−1.
# calf-thymus DNA (ctDNA) = assay: Competitive ethidium bromide displacement assay, calf-thymus DNA; type: binding
# Method: as §1
# poly[d(G-C)2] = assay: Competitive ethidium bromide displacement assay, poly[d(G-C)2]; type: binding; settings: EtBr displacement
# Method: as §1
compound,measurement,setting,value
"2,4,6-Tris-(1,2-ethanediamine)-mesitylene [T2]",DNA condensation activity,supercoiled pUC19 DNA,highly active
"2,4,6-Tris-(1,3-propanediamine)-mesitylene [T3]",DNA condensation activity,supercoiled pUC19 DNA,highly active
"Cc1c(CN)c(C)c(CN)c(C)c1CN [T1, 2,4,6-Tris-(aminomethyl)-mesitylene]",DNA condensation / aggregation effect,supercoiled pUC19 DNA,mildly condense pUC19
"Cc1c(Cn2cc(CN)nn2)c(C)c(Cn2cc(CN)nn2)c(C)c1Cn1cc(CN)nn1 [TC1, Tri-Click propargylamine]",apparent DNA binding constant (Kapp),poly[d(A-T)2],~10^6 M^−1
same,apparent DNA binding constant (Kapp),"calf-thymus DNA (ctDNA); ctDNA, EtBr displacement",~10^6 M^−1
same,binding affinity to duplex DNA (summary),"calf-thymus DNA (ctDNA); duplex DNA, conclusion summary over ctDNA and co-polymers",10^5-10^6 M^−1
same,apparent DNA binding constant (Kapp),poly[d(G-C)2],~10^5 M^−1
"Cc1c(Cn2cc(-c3cccc(N(C)C)c3)nn2)c(C)c(Cn2cc(-c3cccc(N(C)C)c3)nn2)c(C)c1Cn1cc(-c2cccc(N(C)C)c2)nn1 [TC6, Tri-Click 3-ethynyl-N,N-dimethylaniline]",DNA condensation / aggregation effect,supercoiled pUC19 DNA,slight aggregation effects
"Cc1c(Cn2cc(-c3ccc(N(C)C)cc3)nn2)c(C)c(Cn2cc(-c3ccc(N(C)C)cc3)nn2)c(C)c1Cn1cc(-c2ccc(N(C)C)cc2)nn1 [TC7, Tri-Click 4-ethynyl-N,N-dimethylaniline]",DNA condensation / aggregation effect,supercoiled pUC19 DNA,slight aggregation effects
